Laboratory results from PubChem BioAssay AID2060494 (Molecular Pharmacology Branch, DTP, NCI, 2025).

System: 435261-313-R-J1-PDC complex spheroid viability
Assay: Anticancer human tumor 435261-313-R-J1-PDC patient-derived colon adenocarcinoma cell line growth inhibition [GQUAD]
Conditions: for IC50: curve of first compound; for viability, T/C: stronger effect = lower value
Method in brief: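 Viability of tumor cells grown as complex spheroids with endothelial and stromal cells, exposed to drug combinations. Top concentration at or near clinical Cmax (else 10 microM), diluted in half-log increments.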

[1] = second compound 0.0316 µM, first compound 0.0316 µM
[2] = second compound 0.0316 µM, first compound 0.1 µM
[3] = second compound 0.0316 µM, first compound 0.316 µM
[4] = second compound 0.0316 µM, first compound 1 µM
[5] = second compound 0.0316 µM, first compound 3.16 µM
[6] = second compound 0.0316 µM, first compound 10 µM
[7] = second compound 0.1 µM, first compound 0.0316 µM
[8] = second compound 0.1 µM, first compound 0.1 µM
[9] = second compound 0.1 µM, first compound 0.316 µM
[10] = second compound 0.1 µM, first compound 1 µM
[11] = second compound 0.1 µM, first compound 3.16 µM
[12] = second compound 0.1 µM, first compound 10 µM
[13] = second compound 0.316 µM, first compound 0.0316 µM
[14] = second compound 0.316 µM, first compound 0.1 µM
[15] = second compound 0.316 µM, first compound 0.316 µM
[16] = second compound 0.316 µM, first compound 1 µM
[17] = second compound 0.316 µM, first compound 3.16 µM
[18] = second compound 0.316 µM, first compound 10 µM
[19] = second compound 1 µM, first compound 0.0316 µM
[20] = second compound 1 µM, first compound 0.1 µM
[21] = second compound 1 µM, first compound 0.316 µM
[22] = second compound 1 µM, first compound 1 µM
[23] = second compound 1 µM, first compound 3.16 µM
[24] = second compound 1 µM, first compound 10 µM
[25] = second compound 3.16 µM, first compound 0.0316 µM
[26] = second compound 3.16 µM, first compound 0.1 µM
[27] = second compound 3.16 µM, first compound 0.316 µM
[28] = second compound 3.16 µM, first compound 1 µM
[29] = second compound 3.16 µM, first compound 3.16 µM
[30] = second compound 3.16 µM, first compound 10 µM
[31] = second compound 10 µM, first compound 0.0316 µM
[32] = second compound 10 µM, first compound 0.1 µM
[33] = second compound 10 µM, first compound 0.316 µM
[34] = second compound 10 µM, first compound 1 µM
[35] = second compound 10 µM, first compound 3.16 µM
[36] = second compound 10 µM, first compound 10 µM
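Note: spheroids exposed to the agents for seven days before readout.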
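Throughout, for viability, T/C: percent of vehicle control viability with DMSO wells as 100%.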

COc1ncnc(C2CC2)c1-c1ncc2cnn(Cc3ccc(-c4nc(C(F)(F)F)cn4C(C)C)cc3)c2n1 + CN(C)c1ccc(Nc2c3ccc(NC(=O)CCN4CCCC4)cc3nc3cc(NC(=O)CCN4CCCC4)ccc23)cc1
IC50 (second compound 0.0316 µM): > 10 µM | IC50 (second compound 0.1 µM): > 10 µM | IC50 (second compound 0.316 µM): > 10 µM | IC50 (second compound 1 µM): > 10 µM | IC50 (second compound 3.16 µM): 3.14 µM | IC50 (second compound 10 µM): < 0.0316 µM | viability, T/C [1]: 101% | viability, T/C [2]: 94.3% | viability, T/C [3]: 90% | viability, T/C [4]: 84.2% | viability, T/C [5]: 85.9% | viability, T/C [6]: 75.1% | viability, T/C [7]: 103% | viability, T/C [8]: 89.6% | viability, T/C [9]: 113% | viability, T/C [10]: 94% | viability, T/C [11]: 111% | viability, T/C [12]: 91.8% | viability, T/C [13]: 90.7% | viability, T/C [14]: 94% | viability, T/C [15]: 80.9% | viability, T/C [16]: 64% | viability, T/C [17]: 75.4% | viability, T/C [18]: 80.9% | viability, T/C [19]: 82.6% | viability, T/C [20]: 70.8% | viability, T/C [21]: 76.4% | viability, T/C [22]: 69.8% | viability, T/C [23]: 78.6% | viability, T/C [24]: 77.6% | viability, T/C [25]: 50.5% | viability, T/C [26]: 74.3% | viability, T/C [27]: 69% | viability, T/C [28]: 41.2% | viability, T/C [29]: 56.9% | viability, T/C [30]: 30.2% | viability, T/C [31]: 31.4% | viability, T/C [32]: 33.6% | viability, T/C [33]: 28.8% | viability, T/C [34]: 27.9% | viability, T/C [35]: 32.9% | viability, T/C [36]: 10.7%

CCc1c2c(nc3ccc(O)cc13)-c1cc3c(c(=O)n1C2)COC(=O)[C@]3(O)CC + Cc1cnc(CNC(=O)c2c(=O)c3ccc(N4CCCN(C)CC4)nc3n3c2sc2ccccc23)cn1
IC50 (second compound 0.0316 µM): 0.0532 µM | IC50 (second compound 0.1 µM): 0.048 µM | IC50 (second compound 0.316 µM): 0.0112 µM | IC50 (second compound 1 µM): < 0.000999 µM | IC50 (second compound 3.16 µM): < 0.000999 µM | IC50 (second compound 10 µM): < 0.000999 µM | viability, T/C (second compound 0.0316 µM, first compound 0.000999 µM): 63.5% | viability, T/C (second compound 0.0316 µM, first compound 0.00316 µM): 60.3% | viability, T/C (second compound 0.0316 µM, first compound 0.00999 µM): 56.9% | viability, T/C [1]: 53.3% | viability, T/C (second compound 0.0316 µM, first compound 0.0999 µM): 47% | viability, T/C [3]: 30.9% | viability, T/C (second compound 0.1 µM, first compound 0.000999 µM): 66.2% | viability, T/C (second compound 0.1 µM, first compound 0.00316 µM): 65.6% | viability, T/C (second compound 0.1 µM, first compound 0.00999 µM): 52.2% | viability, T/C [7]: 52.7% | viability, T/C (second compound 0.1 µM, first compound 0.0999 µM): 47.1% | viability, T/C [9]: 17.5% | viability, T/C (second compound 0.316 µM, first compound 0.000999 µM): 52.9% | viability, T/C (second compound 0.316 µM, first compound 0.00316 µM): 60% | viability, T/C (second compound 0.316 µM, first compound 0.00999 µM): 51.5% | viability, T/C [13]: 34.5% | viability, T/C (second compound 0.316 µM, first compound 0.0999 µM): 36.9% | viability, T/C [15]: 1.36% | viability, T/C (second compound 1 µM, first compound 0.000999 µM): 38.9% | viability, T/C (second compound 1 µM, first compound 0.00316 µM): 35% | viability, T/C (second compound 1 µM, first compound 0.00999 µM): 35.6% | viability, T/C [19]: 28.7% | viability, T/C (second compound 1 µM, first compound 0.0999 µM): 14.9% | viability, T/C [21]: 0.15% | viability, T/C (second compound 3.16 µM, first compound 0.000999 µM): 13.5% | viability, T/C (second compound 3.16 µM, first compound 0.00316 µM): 12.2% | viability, T/C (second compound 3.16 µM, first compound 0.00999 µM): 4.86% | viability, T/C [25]: 0.17% | viability, T/C (second compound 3.16 µM, first compound 0.0999 µM): 0.14% | viability, T/C [27]: 0.15% | viability, T/C (second compound 10 µM, first compound 0.000999 µM): 0.15% | viability, T/C (second compound 10 µM, first compound 0.00316 µM): 0.14% | viability, T/C (second compound 10 µM, first compound 0.00999 µM): 0.19% | viability, T/C [31]: 0.2% | viability, T/C (second compound 10 µM, first compound 0.0999 µM): 0.2% | viability, T/C [33]: 0.14%

CC(C)n1c(=O)n(C)c2cnc3cc(F)c(-c4ccc(OCCCN5CCCCC5)nc4)cc3c21 + Cc1cnc(CNC(=O)c2c(=O)c3ccc(N4CCCN(C)CC4)nc3n3c2sc2ccccc23)cn1
IC50 (second compound 0.0316 µM): 3.96 µM | IC50 (second compound 0.1 µM): 4.64 µM | IC50 (second compound 0.316 µM): 1.08 µM | IC50 (second compound 1 µM): < 0.0316 µM | IC50 (second compound 3.16 µM): < 0.0316 µM | IC50 (second compound 10 µM): < 0.0316 µM | viability, T/C [1]: 81.5% | viability, T/C [2]: 68% | viability, T/C [3]: 74.5% | viability, T/C [4]: 56.7% | viability, T/C [5]: 61.4% | viability, T/C [6]: 32.5% | viability, T/C [7]: 61% | viability, T/C [8]: 61.6% | viability, T/C [9]: 63.3% | viability, T/C [10]: 57.8% | viability, T/C [11]: 60.9% | viability, T/C [12]: 28.6% | viability, T/C [13]: 50.7% | viability, T/C [14]: 64.7% | viability, T/C [15]: 52.8% | viability, T/C [16]: 49.3% | viability, T/C [17]: 42.9% | viability, T/C [18]: 30.9% | viability, T/C [19]: 42.4% | viability, T/C [20]: 45.1% | viability, T/C [21]: 45.7% | viability, T/C [22]: 48.1% | viability, T/C [23]: 26.1% | viability, T/C [24]: 5.54% | viability, T/C [25]: 14.6% | viability, T/C [26]: 8.86% | viability, T/C [27]: 7.48% | viability, T/C [28]: 16.6% | viability, T/C [29]: 5.15% | viability, T/C [30]: 0.23% | viability, T/C [31]: 0.18% | viability, T/C [32]: 0.2% | viability, T/C [33]: 0.2% | viability, T/C [34]: 0.18% | viability, T/C [35]: 0.29% | viability, T/C [36]: 0.16%

O=c1[nH]cc(F)c(=O)[nH]1 + Cc1[nH]c2ccc(F)cc2c1-c1nc2c3cccnc3c3ncccc3c2[nH]1
IC50 (second compound 0.0316 µM): > 10 µM | IC50 (second compound 0.1 µM): > 10 µM | IC50 (second compound 0.316 µM): > 10 µM | IC50 (second compound 1 µM): 0.464 µM | IC50 (second compound 3.16 µM): < 0.0316 µM | IC50 (second compound 10 µM): < 0.0316 µM | viability, T/C [1]: 112% | viability, T/C [2]: 72.3% | viability, T/C [3]: 80.1% | viability, T/C [4]: 74.5% | viability, T/C [5]: 66.2% | viability, T/C [6]: 64.9% | viability, T/C [7]: 94.7% | viability, T/C [8]: 84.2% | viability, T/C [9]: 62% | viability, T/C [10]: 72.1% | viability, T/C [11]: 64.1% | viability, T/C [12]: 61.3% | viability, T/C [13]: 78.5% | viability, T/C [14]: 66.5% | viability, T/C [15]: 52.8% | viability, T/C [16]: 65.3% | viability, T/C [17]: 49.1% | viability, T/C [18]: 56% | viability, T/C [19]: 53.2% | viability, T/C [20]: 75% | viability, T/C [21]: 51.9% | viability, T/C [22]: 47.9% | viability, T/C [23]: 50.2% | viability, T/C [24]: 40.6% | viability, T/C [25]: 34.2% | viability, T/C [26]: 27.4% | viability, T/C [27]: 25.1% | viability, T/C [28]: 26.7% | viability, T/C [29]: 24.1% | viability, T/C [30]: 27.7% | viability, T/C [31]: 17.9% | viability, T/C [32]: 25.7% | viability, T/C [33]: 19% | viability, T/C [34]: 19.3% | viability, T/C [35]: 16.4% | viability, T/C [36]: 21.3%
